Experimental data as given in patent publication US20030129629A1, “Methods and compositions for the identification, assessment, prevention, and therapy of human cancers” (Millennium Pharmaceuticals, Inc., priority 2000, published 2003).
Several values for one entry are separate records, joined by “and”; a condition that tells them apart may be missing. Equal values may be shown once. Where a name gives a salt, the structure may show the parent alone. Read-outs that look alike come from different tables or passages of the source.

Tested on: 60 cancer cell lines (NCI 60 cancer cell line series)
Test: NCI-DTP in vitro cancer screen, sulforhodamine B (SRB) growth inhibition, 48 hour exposure
Format: cell-based, human
Method: Cancer Cell Line Preparation. Sixty cancer cell lines were obtained from the National Cancer Institute Developmental Therapeutics Program (NCI-DTP). Procedures for growing cells and testing compounds have been described previously (Scudiero et al., Cancer Res. 1988, 48:4827-4833; Stinson et al., Anticancer Res.; Myers et al., Electrophoresis 1997, 18:647-653). Cells are plated on day 0 at a density individualized for each cell line so that they will generally be sub-confluent at the end of the assay period. On day 1, a compound is added in the format for a duplicate-well, 5-dose, ten-fold interval dose response study.
No-drug, no-cell and no-growth controls are included. On day 3 the cells are processed for staining with sulforhodamine B (SRB), which reflects the amount of cell mass present at the end of a 48 hour exposure to the test agent. From dose response curves based on the SRB data, various parameters can be determined. […] More precisely, the quantity used in the calculation to be described is the potency measure −log{GI50}.
Activity database (A). […] This subset of compounds was selected from the larger 23,000 compound database available from the DTP. The compounds were selected on the basis of their known mechanism of action and chemical structure. The average potency −log{GI50} was extracted from the comma-delimited text files available through the Web at http://www.nci.nih.gov/intra/lmp/jnwbio.html. Subsequently, these −log{GI50} values were inspected manually and classified as indicating either Low, Medium or High sensitivity to each compound.

CC[C@]1(O)C[C@H]2CN(CCc3c([nH]c4ccccc34)[C@@](C(=O)OC)(c3cc4c(cc3OC)N(C=O)[C@H]3[C@@](O)(C(=O)OC)[C@H](OC(C)=O)[C@]5(CC)C=CCN6CC[C@]43[C@@H]65)C2)C1 [Vincristine sulfate]
2: classification of cell line as Low(1), Medium(2), High(3) sensitivity to compound (Breast HS-578T CL5006) | classification of cell line as Low(1), Medium(2), High(3) sensitivity to compound (Breast MCF7(I) CL5001) | classification of cell line as Low(1), Medium(2), High(3) sensitivity to compound (Breast MCF7/ADRr CL5002) | classification of cell line as Low(1), Medium(2), High(3) sensitivity to compound (Breast MDA-MB-231 CL5005) | classification of cell line as Low(1), Medium(2), High(3) sensitivity to compound (Breast MDA-MB-435 CL5011) | classification of cell line as Low(1), Medium(2), High(3) sensitivity to compound (Breast MDA-N CL5012) | classification of cell line as Low(1), Medium(2), High(3) sensitivity to compound (CNS SF-268 CL12014) | classification of cell line as Low(1), Medium(2), High(3) sensitivity to compound (CNS SNB-19 CL12002) | classification of cell line as Low(1), Medium(2), High(3) sensitivity to compound (CNS SNB-75(I) CL12005) | classification of cell line as Low(1), Medium(2), High(3) sensitivity to compound (CNS U251(I) CL12009) | classification of cell line as Low(1), Medium(2), High(3) sensitivity to compound (Colon COLO-250 CL4010) | classification of cell line as Low(1), Medium(2), High(3) sensitivity to compound (Colon HCC-2998 CL4002) | classification of cell line as Low(1), Medium(2), High(3) sensitivity to compound (Colon HCT-15 CL4015) | classification of cell line as Low(1), Medium(2), High(3) sensitivity to compound (Colon HCT-116 CL4003) | classification of cell line as Low(1), Medium(2), High(3) sensitivity to compound (Melanoma M14 CL10014) | classification of cell line as Low(1), Medium(2), High(3) sensitivity to compound (Melanoma MALME-3M CL10002) | classification of cell line as Low(1), Medium(2), High(3) sensitivity to compound (Melanoma SK-MEL-2 CL10005) | classification of cell line as Low(1), Medium(2), High(3) sensitivity to compound (Melanoma UACC-62 CL10020) | classification of cell line as Low(1), Medium(2), High(3) sensitivity to compound (Melanoma UACC-257 CL10021) | classification of cell line as Low(1), Medium(2), High(3) sensitivity to compound (NSCLC A549/ATCC CL1004) | classification of cell line as Low(1), Medium(2), High(3) sensitivity to compound (NSCLC HOP-62 CL1026) | classification of cell line as Low(1), Medium(2), High(3) sensitivity to compound (NSCLC HOP-92 CL1029) | classification of cell line as Low(1), Medium(2), High(3) sensitivity to compound (NSCLC NCI-H226 CL1013) | sensitivity classification Low(1)/Medium(2)/High(3) (NSCLC NCI-H332M CL1017) | sensitivity classification Low(1)/Medium(2)/High(3) (Ovarian OVCAR-4 CL6002) | sensitivity classification Low(1)/Medium(2)/High(3) (Ovarian SK-OV-3 CL6011) | sensitivity classification Low(1)/Medium(2)/High(3) (Prostate DU-145 CL11003) | sensitivity classification Low(1)/Medium(2)/High(3) (Prostate PC-3(I) CL11001) | sensitivity classification Low(1)/Medium(2)/High(3) (Renal 786-0 CL9018) | sensitivity classification Low(1)/Medium(2)/High(3) (Renal ACHN CL9023) | sensitivity classification Low(1)/Medium(2)/High(3) (Renal CAKI-1 CL9015) | sensitivity classification Low(1)/Medium(2)/High(3) (Renal RXF-393 CL9016) | sensitivity classification Low(1)/Medium(2)/High(3) (Renal SN12C CL9008)
1: classification of cell line as Low(1), Medium(2), High(3) sensitivity to compound (Breast BT-549 CL5013) | classification of cell line as Low(1), Medium(2), High(3) sensitivity to compound (Breast T-47D CL5014) | classification of cell line as Low(1), Medium(2), High(3) sensitivity to compound (Melanoma SK-MEL-28 CL10008) | classification of cell line as Low(1), Medium(2), High(3) sensitivity to compound (NSCLC EKVX CL1008) | sensitivity classification Low(1)/Medium(2)/High(3) (Ovarian OVCAR-5 CL6003) | sensitivity classification Low(1)/Medium(2)/High(3) (Renal TK10 CL9024) | sensitivity classification Low(1)/Medium(2)/High(3) (Renal UO-31 CL9004)
3: classification of cell line as Low(1), Medium(2), High(3) sensitivity to compound (CNS SF-295 CL12015) | classification of cell line as Low(1), Medium(2), High(3) sensitivity to compound (CNS SF-539 CL12016) | classification of cell line as Low(1), Medium(2), High(3) sensitivity to compound (Colon HT29(I) CL4001) | classification of cell line as Low(1), Medium(2), High(3) sensitivity to compound (Colon KM12 CL4017) | classification of cell line as Low(1), Medium(2), High(3) sensitivity to compound (Colon SW-620 CL4009) | classification of cell line as Low(1), Medium(2), High(3) sensitivity to compound (Leukemia CCRF-CEM(I) CL7003) | classification of cell line as Low(1), Medium(2), High(3) sensitivity to compound (Leukemia HL-60(I) CL7008) | classification of cell line as Low(1), Medium(2), High(3) sensitivity to compound (Leukemia K562(I) CL7005) | classification of cell line as Low(1), Medium(2), High(3) sensitivity to compound (Leukemia MOLT-4 CL7006) | classification of cell line as Low(1), Medium(2), High(3) sensitivity to compound (Leukemia RPMI-8226(I) CL7010) | classification of cell line as Low(1), Medium(2), High(3) sensitivity to compound (Leukemia SR CL7019) | classification of cell line as Low(1), Medium(2), High(3) sensitivity to compound (Melanoma LOX IMVI CL10001) | classification of cell line as Low(1), Medium(2), High(3) sensitivity to compound (Melanoma SK-MEL-5 CL10007) | sensitivity classification Low(1)/Medium(2)/High(3) (NSCLC NCI-H23(I) CL1001) | sensitivity classification Low(1)/Medium(2)/High(3) (NSCLC NCI-H460 CL1021) | sensitivity classification Low(1)/Medium(2)/High(3) (NSCLC NCI-H522 CL1003) | sensitivity classification Low(1)/Medium(2)/High(3) (Ovarian IGROV1 CL6010) | sensitivity classification Low(1)/Medium(2)/High(3) (Ovarian OVCAR-3 CL6001) | sensitivity classification Low(1)/Medium(2)/High(3) (Ovarian OVCAR-8 CL6005) | sensitivity classification Low(1)/Medium(2)/High(3) (Renal A498 CL9013)

Nc1ccn([C@@H]2O[C@H](CO)[C@@H](O)[C@@H]2O)c(=O)n1 [AraC]
3 and 2 and 1: classification of cell line as Low(1), Medium(2), High(3) sensitivity to compound | sensitivity classification Low(1)/Medium(2)/High(3)
